Data reported in the NIST ThermoML archive (doi:10.1021/je050374d).

Assay: xn = mol fraction of the nth substance listed
Settings: Liquid

C=C [ethene] + CO
Settings	mass density [kg/m3]
278.15 K, x1 = 0.147	742.3
278.15 K, x1 = 0.189	722.2
278.15 K, x1 = 0.295	675.3
278.15 K, x1 = 0.373	644.9
278.15 K, x1 = 0.989	322
283.65 K, x1 = 0.14	741.3
283.65 K, x1 = 0.221	706
283.65 K, x1 = 0.325	657.5
283.65 K, x1 = 0.432	610.9
283.65 K, x1 = 0.475	589.1
283.65 K, x1 = 0.984	258.5
